According to US9758529B2, “Fused dihydro-4H-pyrazolo[5,1-C][1,4]oxazinyl compounds and analogs for treating CNS disorders” (Sunovion Pharmaceuticals Inc., priority 2015, dated 2017):
Structures can show the parent of a compound that is named as a salt.

The compounds below were run on mice (assay: Neuropharmacological Assay (SmartCube)). Details: i.p. 15 min before behavioral test; 3 doses, most efficacious dose(s) presented.
Assay type: in vivo
Description: Neurosci. […] As reported in Roberds, because psychiatric diseases generally result from disorders of cell-cell communication or circuitry, intact systems are useful in detecting improvement in disease-relevant endpoints. These endpoints are typically behavioral in nature, often requiring human observation and interpretation. To facilitate testing of multiple compounds for behavioral effects relevant to psychiatric disease, PsychoGenics, Inc. (Tarrytown, N.Y., “PGI”) developed SmartCube™, an automated system in which behaviors of compound-treated mice are captured by digital video and analyzed with computer algorithms. […] PGI Analytical Systems uses data from SmartCube™ to compare the behavioral signature of a test compound to a database of behavioral signatures obtained using a large set of diverse reference compounds. (The composition of the database as well as validation of the method is further described in Roberds). In this way, the neuropharmacological effects of a test compound can be predicted by similarity to major classes of compounds, such as antipsychotics, anxiolytics and antidepressants.
The SmartCube™ system produces an activity signature indicating the probability that the activity of the test compound at the administered dose matches a given class of neuropharmacological agents. (See, e.g., Roberds, FIGS. 2 and 3). The test compound is simultaneously compared against multiple classes of agents; thus, a separate probability is generated for each behavioral effect measured (e.g., anxiolytic activity, analgesic activity, etc.). In Table 2 and 2B, these probabilities are reported for each behavioral effect measured as follows:
where LOQ is the limit of quantification.
Provided compounds were dissolved in a mixture of Pharmasolve™ (N-methyl-2-pyrrolidone), polyethylene glycol and propylene glycol, and were injected i.p. 15 min. before the behavioral test. For each compound, injections were administered at 3 different doses. For each behavioral effect measured, results for the most efficacious dose(s) are presented.

SMILES	AD: ADHD (probability of class match)	AG: analgesic (probability of class match)	AX: anxiolytic (probability of class match)	CE: cognitive enhancer (probability of class match)	DP: anti-depressant (probability of class match)	HA: hallucinogen (probability of class match)	MS: mood stabilizer (probability of class match)	PS: anti-psychotic (probability of class match)	SD: sedative hypnotic (probability of class match)	UN: uncharacterized CNS activity (probability of class match)
c1ccc2c3n(nc2c1)CCOC31CNC1 [Compound 40, 3′,4′-dihydrospiro[azetidine-3,1′-[1,4]oxazino[4,3-b]indazol]-1-ium chloride]	+ (LOQ≦ + <5%)	++ (5%≦ ++ <25%)	+++ (25%≦ +++ <50%)	++ (5%≦ ++ <25%)	++ (5%≦ ++ <25%)	+ (LOQ≦ + <5%)	+ (LOQ≦ + <5%)	++ (5%≦ ++ <25%)	++ (5%≦ ++ <25%)	+ (LOQ≦ + <5%)
CN(C)CC1OCCn2nc3ccc(F)cc3c21.Cl (stereo not shown) [Compound 8, 1-(9-fluoro-3,4-dihydro-1H-[1,4]oxazino[4,3-b]indazol-1-yl)-N,N-dimethylmethanaminium chloride]	+ (LOQ≦ + <5%)	++ (5%≦ ++ <25%)	++ (5%≦ ++ <25%)	++ (5%≦ ++ <25%)	+++ (25%≦ +++ <50%)	+ (LOQ≦ + <5%)	+ (LOQ≦ + <5%)	++ (5%≦ ++ <25%)	+ (LOQ≦ + <5%)	+ (LOQ≦ + <5%)
c1ccc2c3n(nc2c1)CCOC3CNC1CCC1 (stereo not shown) [Compound 16, N-((3,4-dihydro-1H-[1,4]oxazino[4,3-b]indazol-1-yl)methyl) cyclobutanamine]	+ (LOQ≦ + <5%)	+ (LOQ≦ + <5%)	+ (LOQ≦ + <5%)	+ (LOQ≦ + <5%)	+ (LOQ≦ + <5%)	+ (LOQ≦ + <5%)	+ (LOQ≦ + <5%)	+ (LOQ≦ + <5%)	+ (LOQ≦ + <5%)	+ (LOQ≦ + <5%)
c1ccc2c3n(nc2c1)CCOC3C1CCNCC1 (stereo not shown) [Compound 35, 4-(3,4-dihydro-1H-[1,4]oxazino[4,3-b]indazol-1-yl)piperidin-1-ium chloride]	+ (LOQ≦ + <5%)	+ (LOQ≦ + <5%)	+ (LOQ≦ + <5%)	+ (LOQ≦ + <5%)	+ (LOQ≦ + <5%)	+ (LOQ≦ + <5%)	+ (LOQ≦ + <5%)	+ (LOQ≦ + <5%)	+ (LOQ≦ + <5%)	+ (LOQ≦ + <5%)
c1ccc2c3n(nc2c1)CCOC3CN1CCCC1 (stereo not shown) [Compound 19, 1-(pyrrolidin-1-ylmethyl)-3,4-dihydro-1H-[1,4]oxazino[4,3-b]indazole hydrogen chloride salt]	+ (LOQ≦ + <5%)	++ (5%≦ ++ <25%)	++ (5%≦ ++ <25%)	++ (5%≦ ++ <25%)	+++ (25%≦ +++ <50%)	+ (LOQ≦ + <5%)	+ (LOQ≦ + <5%)	+ (LOQ≦ + <5%)	+ (LOQ≦ + <5%)	+ (LOQ≦ + <5%)
CC(C)N(C)CC1OCCCn2nc3ccccc3c21.Cl (stereo not shown) [Compound 54, N-((4,5-dihydro-1H,3H-[1,4]oxazepino[4,3-b]indazol-1-yl)methyl)-N-methylpropan-2-aminium chloride]	+ (LOQ≦ + <5%)	+ (LOQ≦ + <5%)	++ (5%≦ ++ <25%)	+ (LOQ≦ + <5%)	+ (LOQ≦ + <5%)	+ (LOQ≦ + <5%)	+ (LOQ≦ + <5%)	+ (LOQ≦ + <5%)	+ (LOQ≦ + <5%)	+ (LOQ≦ + <5%)
CN1CC[C@H]1C1OCCn2nc3ccccc3c21 (stereo partly drawn) [Compound 65, ((2S)-2-(3,4-dihydro-1H-[1,4]oxazino[4,3-b]indazol-1-yl)-1-methylazetidin-1-ium chloride]	+ (LOQ≦ + <5%)	+++ (25%≦ +++ <50%)	++ (5%≦ ++ <25%)	++ (5%≦ ++ <25%)	++ (5%≦ ++ <25%)	+ (LOQ≦ + <5%)	+ (LOQ≦ + <5%)	+ (LOQ≦ + <5%)	++ (5%≦ ++ <25%)	+ (LOQ≦ + <5%)
CNCC1OCCn2nc3ccc(Cl)cc3c21.Cl (stereo not shown) [Compound 5, 1-(9-chloro-3,4-dihydro-1H-[1,4]oxazino[4,3-b]indazol-1-yl)-N-methylmethanaminium chloride]	+ (LOQ≦ + <5%)	++ (5%≦ ++ <25%)	+ (LOQ≦ + <5%)	+ (LOQ≦ + <5%)	++ (5%≦ ++ <25%)	+ (LOQ≦ + <5%)	+ (LOQ≦ + <5%)	+ (LOQ≦ + <5%)	+ (LOQ≦ + <5%)	+ (LOQ≦ + <5%)
CN(C)CC1OCCCn2nc3ccccc3c21.Cl (stereo not shown) [Compound 52, 1-(4,5-dihydro-1H,3H-[1,4]oxazepino[4,3-b]indazol-1-yl)-N,N-dimethylmethanaminium chloride]	+ (LOQ≦ + <5%)	+ (LOQ≦ + <5%)	++ (5%≦ ++ <25%)	+ (LOQ≦ + <5%)	++ (5%≦ ++ <25%)	+ (LOQ≦ + <5%)	+ (LOQ≦ + <5%)	+ (LOQ≦ + <5%)	+ (LOQ≦ + <5%)	++ (5%≦ ++ <25%)
CN1CCOC[C@H]1[C@@H]1OCCn2nc3ccccc3c21 (racemic) [Compound 48, (+/−)-(3S,4R)-3-((S)-3,4-dihydro-1H-[1,4]oxazino[4,3-b]indazol-1-yl)-4-methylmorpholin-4-ium chloride]	+ (LOQ≦ + <5%)	+ (LOQ≦ + <5%)	+ (LOQ≦ + <5%)	+ (LOQ≦ + <5%)	+ (LOQ≦ + <5%)	+ (LOQ≦ + <5%)	+ (LOQ≦ + <5%)	+ (LOQ≦ + <5%)	+ (LOQ≦ + <5%)	+ (LOQ≦ + <5%)
c1ccc2c3n(nc2c1)CCOC3CN1CC1 (stereo not shown) [Compound 63, 1-(aziridin-1-ylmethyl)-3,4-dihydro-1H-[1,4]oxazino[4,3-b]indazole]	+ (LOQ≦ + <5%)	+++ (25%≦ +++ <50%)	+ (LOQ≦ + <5%)	+ (LOQ≦ + <5%)	++ (5%≦ ++ <25%)	+ (LOQ≦ + <5%)	+ (LOQ≦ + <5%)	+ (LOQ≦ + <5%)	++ (5%≦ ++ <25%)	+ (LOQ≦ + <5%)

Same assay, conditions: i.p. 15 min before behavioral test; 3 doses, most efficacious dose(s) presented

SMILES	XG: anxiogenic (probability of class match)
c1ccc2c3n(nc2c1)CCOC31CNC1 [Compound 40, 3′,4′-dihydrospiro[azetidine-3,1′-[1,4]oxazino[4,3-b]indazol]-1-ium chloride]	+ (LOQ≦ + <5%)
CN(C)CC1OCCn2nc3ccc(F)cc3c21.Cl (stereo not shown) [Compound 8, 1-(9-fluoro-3,4-dihydro-1H-[1,4]oxazino[4,3-b]indazol-1-yl)-N,N-dimethylmethanaminium chloride]	++ (5%≦ ++ <25%)
c1ccc2c3n(nc2c1)CCOC3CNC1CCC1 (stereo not shown) [Compound 16, N-((3,4-dihydro-1H-[1,4]oxazino[4,3-b]indazol-1-yl)methyl) cyclobutanamine]	+ (LOQ≦ + <5%)
c1ccc2c3n(nc2c1)CCOC3C1CCNCC1 (stereo not shown) [Compound 35, 4-(3,4-dihydro-1H-[1,4]oxazino[4,3-b]indazol-1-yl)piperidin-1-ium chloride]	+ (LOQ≦ + <5%)
c1ccc2c3n(nc2c1)CCOC3CN1CCCC1 (stereo not shown) [Compound 19, 1-(pyrrolidin-1-ylmethyl)-3,4-dihydro-1H-[1,4]oxazino[4,3-b]indazole hydrogen chloride salt]	+ (LOQ≦ + <5%)
CC(C)N(C)CC1OCCCn2nc3ccccc3c21.Cl (stereo not shown) [Compound 54, N-((4,5-dihydro-1H,3H-[1,4]oxazepino[4,3-b]indazol-1-yl)methyl)-N-methylpropan-2-aminium chloride]	+ (LOQ≦ + <5%)
CN1CC[C@H]1C1OCCn2nc3ccccc3c21 (stereo partly drawn) [Compound 65, ((2S)-2-(3,4-dihydro-1H-[1,4]oxazino[4,3-b]indazol-1-yl)-1-methylazetidin-1-ium chloride]	++ (5%≦ ++ <25%)
CNCC1OCCn2nc3ccc(Cl)cc3c21.Cl (stereo not shown) [Compound 5, 1-(9-chloro-3,4-dihydro-1H-[1,4]oxazino[4,3-b]indazol-1-yl)-N-methylmethanaminium chloride]	+ (LOQ≦ + <5%)
CN(C)CC1OCCCn2nc3ccccc3c21.Cl (stereo not shown) [Compound 52, 1-(4,5-dihydro-1H,3H-[1,4]oxazepino[4,3-b]indazol-1-yl)-N,N-dimethylmethanaminium chloride]	+ (LOQ≦ + <5%)
CN1CCOC[C@H]1[C@@H]1OCCn2nc3ccccc3c21 (racemic) [Compound 48, (+/−)-(3S,4R)-3-((S)-3,4-dihydro-1H-[1,4]oxazino[4,3-b]indazol-1-yl)-4-methylmorpholin-4-ium chloride]	+ (LOQ≦ + <5%)
c1ccc2c3n(nc2c1)CCOC3CN1CC1 (stereo not shown) [Compound 63, 1-(aziridin-1-ylmethyl)-3,4-dihydro-1H-[1,4]oxazino[4,3-b]indazole]	+ (LOQ≦ + <5%)
